{"source": "patent US10118892B2", "about": "“Compounds and their synthesis” (UCL BUSINESS PLC, priority 2012, dated 2018)", "key": {"[1]": {"test": "Biodistribution studies: blood and brain uptake of radiotracer over time", "format": "in vivo, Balb/C or FVB mice", "conditions": "mice", "method": "(§1) A series of radiolabelled tracers was prepared using the reported chemistry and investigated in vivo (Balb/C or FVB mice) by biodistribution studies and/or metabolite analysis. Examples in FIGS. 7-10 highlight the versatility of the reported chemistry that allows for tracers with a variety of backbone structures and side chains. By deliberately modifying chemical moieties the tracer can be fine-tuned towards up-take in tissues of interest, e.g. brain, heart or lungs. FIGS. 11-15 show the results of the in vivo investigation of a potential pro-drug tracer that was developed to monitor the efflux pump P-glycoprotein at the blood-brain barrier.\nFemale Balb/C mice and FVB mice were obtained from Charles River UK. When used, they were eight to eleven weeks old and weighing approximately 20 g. […]\n(§2) The respective radiotracer (0.5-1 MBq formulated in a saline solution containing 5% ethanol) was administered intravenously into the tail vein. […] The organs of interest (blood, colon, stomach, spleen, kidneys, liver, heart, lungs, tail, femur, skull, and brain) were sampled, weighed, and the radioactivity content was measured by automated gamma counting (Cobra Multi Gamma Model 5010-Packard, UK). Results were normalised to the radioactivity found in 1% of the injected dose per gram bodyweight. All experiments were performed in duplicates or triplicates and analysed using Microsoft Office Excel 2007."}, "[2]": {"molecular_target": "T1, P-glycoprotein at the blood-brain barrier (Mus musculus, UniProt P21447)", "T1 construct": "investigated in vivo (Balb/C or FVB mice) by biodistribution studies and/or metabolite analysis; tissue Charles River UK; host or cells: living Balb/C or FVB mice; blood-brain barrier / brain", "T1 sequence (P21447 whole entry)": "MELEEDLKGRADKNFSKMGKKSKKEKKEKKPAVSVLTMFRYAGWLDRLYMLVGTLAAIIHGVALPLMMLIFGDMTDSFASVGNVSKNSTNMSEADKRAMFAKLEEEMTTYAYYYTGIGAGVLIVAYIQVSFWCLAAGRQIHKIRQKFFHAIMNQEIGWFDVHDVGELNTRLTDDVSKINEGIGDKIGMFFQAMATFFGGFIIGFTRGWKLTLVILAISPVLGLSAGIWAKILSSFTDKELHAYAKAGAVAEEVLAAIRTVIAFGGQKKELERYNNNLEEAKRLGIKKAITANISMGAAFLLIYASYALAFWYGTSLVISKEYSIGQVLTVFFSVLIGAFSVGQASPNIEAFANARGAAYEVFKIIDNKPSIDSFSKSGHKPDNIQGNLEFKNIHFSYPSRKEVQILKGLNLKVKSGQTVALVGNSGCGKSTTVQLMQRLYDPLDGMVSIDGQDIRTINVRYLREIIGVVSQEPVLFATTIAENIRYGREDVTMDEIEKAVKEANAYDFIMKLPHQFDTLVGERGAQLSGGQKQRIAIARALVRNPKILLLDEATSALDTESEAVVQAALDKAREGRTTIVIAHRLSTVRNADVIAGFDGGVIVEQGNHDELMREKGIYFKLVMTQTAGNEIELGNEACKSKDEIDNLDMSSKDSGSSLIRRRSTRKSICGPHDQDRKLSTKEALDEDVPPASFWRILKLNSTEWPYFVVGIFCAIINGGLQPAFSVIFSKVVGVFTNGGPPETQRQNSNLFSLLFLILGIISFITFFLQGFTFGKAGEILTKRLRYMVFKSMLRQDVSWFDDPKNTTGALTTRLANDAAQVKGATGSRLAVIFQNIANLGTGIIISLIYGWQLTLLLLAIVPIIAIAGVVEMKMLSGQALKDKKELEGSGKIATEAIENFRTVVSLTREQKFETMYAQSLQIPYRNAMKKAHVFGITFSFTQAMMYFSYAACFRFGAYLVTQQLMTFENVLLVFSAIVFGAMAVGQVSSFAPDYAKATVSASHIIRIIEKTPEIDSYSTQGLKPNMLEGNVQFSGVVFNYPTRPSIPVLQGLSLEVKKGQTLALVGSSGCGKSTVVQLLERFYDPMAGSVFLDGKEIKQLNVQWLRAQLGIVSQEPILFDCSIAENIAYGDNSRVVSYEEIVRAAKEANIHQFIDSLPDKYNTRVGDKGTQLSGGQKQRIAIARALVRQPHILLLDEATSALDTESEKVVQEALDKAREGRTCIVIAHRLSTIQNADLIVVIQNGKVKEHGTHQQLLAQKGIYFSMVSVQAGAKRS", "test": "Biodistribution with P-glycoprotein activity inhibited by concomitant tariquidar (TQD)", "format": "in vivo, Balb/C or FVB mice", "conditions": "mice, with and without TQD (FIG. 15)", "method": "as §1, with “barrier. […]” for “barrier.”\nas §2\nBrains were homogenised in saline (0.5 ml) and ethanol (0.5 ml). […] The flow rate was 1 ml/min and the UV absorbance detector was set at 254 nm. […]"}}, "data": [{"smiles": "OCCCCN1CCC(=C(c2ccccc2)c2ccc(F)cc2)CC1", "note": "[Compound [^18F]6]", "values": [{"measurement": "brain uptake", "setting": "[1]; intravenous into tail vein, uptake over time (FIG. 15)", "result": "high brain uptake"}, {"measurement": "brain to blood ratio", "setting": "[1]; intravenous, FIG. 15, suitable for nuclear imaging", "result": "good brain to blood ratio"}, {"measurement": "wash-out of tracer from the brain by P-glycoprotein", "setting": "[2]", "result": "consistently washed out of the brain by P-glycoprotein"}]}]}
